Experimental data reported in publication PMC7710018, “Restoration of motor learning in a mouse model of Rett syndrome following long-term treatment with a novel small-molecule activator of TrkB” (Disease Models & Mechanisms, 2020).
Like-named read-outs stand apart in the source and are kept apart here.

How the values were obtained:
5-HT1A (h) = target: T1, 5-HT1A (h) (Homo sapiens, UniProt P08908); assay: Cerep ExpresSProfile radioligand binding; details: 10 micromolar, agonist radioligand
T1 construct: purchased Cerep (ExpresSProfile)
T1 sequence (P08908 whole entry): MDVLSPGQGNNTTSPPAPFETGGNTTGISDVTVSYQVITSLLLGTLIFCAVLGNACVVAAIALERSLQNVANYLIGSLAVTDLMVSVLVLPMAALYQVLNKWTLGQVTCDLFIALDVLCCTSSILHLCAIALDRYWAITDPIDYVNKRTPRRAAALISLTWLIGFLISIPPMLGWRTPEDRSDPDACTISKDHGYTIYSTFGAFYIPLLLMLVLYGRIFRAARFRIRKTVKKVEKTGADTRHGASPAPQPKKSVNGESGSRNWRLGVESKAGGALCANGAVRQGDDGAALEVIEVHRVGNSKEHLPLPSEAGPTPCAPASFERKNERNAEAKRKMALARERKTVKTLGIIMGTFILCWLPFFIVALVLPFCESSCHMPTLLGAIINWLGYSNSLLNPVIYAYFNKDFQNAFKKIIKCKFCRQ
Procedure: (§1) To evaluate the relative binding specificity of LM22A-4 ([Massa et al., 2010]) and PTX-BD4-3, binding to a broad range of 55 pharmacologically relevant receptors, including numerous neurotransmitter and G-protein coupled receptors was assessed using standard radioligand competition binding assays (ExpressSProfile) performed by Cerep, Inc. (Seattle, WA, USA). In addition, ADME-Tox analysis was performed by Cerep, Inc. All experimental conditions are described on the Cerep website (www.cerep.fr).
(§2) Ligand % Inhibition of Control Specific […]
(§3) 48 Ca2+ channel (L, verapamil site) 0 ‐1.3 ‐0.7
(§4) (phenylalkylamine) (antagonist radioligand) […]
(§5) 51 Na+ channel (site 2) (antagonist radioligand) 0.6 11.7 6.1
(§6) 52 Cl‐ channel (GABA‐gated) (antagonist 2.7 ‐5.3 ‐1.3 […]
(§7) Table S1. In vitro binding assays. An ExpresSProfile screen of PTX-BD4-3 binding to a panel of pharmacologically relevant receptors was conducted by Cerep, Inc.
(§8) (Eurofins Panlabs, MO). The results are expressed as percent inhibition of control specific binding obtained in the presence of 10 micromolar PTX-BD4-3. In this assay, values below 50% indicate no specific binding of PTX-BD4-3. The assay was negative for PTX-BD4-3 binding to all of the 55 receptors in the screen.
(§9) (also on this page, place not known: 2B 5‐HT 3 5‐HT 5a 5‐HT 6 5‐HT 7 (agonis t VPAC 1 V 1 Ca 2+ K V SK Ca Na + Cl ‐ 5‐HT Disease Models & Mechanisms: doi:10.1242/dmm.044685: Supplementary information Disease Models & Mechanisms • Supplementary information)

A1 (h) = target: T2, A1 (h) (Homo sapiens, UniProt P30542); assay: Cerep ExpresSProfile radioligand binding; details: 10 micromolar, agonist radioligand
T2 construct: purchased Cerep (ExpresSProfile)
T2 sequence (P30542 1-326): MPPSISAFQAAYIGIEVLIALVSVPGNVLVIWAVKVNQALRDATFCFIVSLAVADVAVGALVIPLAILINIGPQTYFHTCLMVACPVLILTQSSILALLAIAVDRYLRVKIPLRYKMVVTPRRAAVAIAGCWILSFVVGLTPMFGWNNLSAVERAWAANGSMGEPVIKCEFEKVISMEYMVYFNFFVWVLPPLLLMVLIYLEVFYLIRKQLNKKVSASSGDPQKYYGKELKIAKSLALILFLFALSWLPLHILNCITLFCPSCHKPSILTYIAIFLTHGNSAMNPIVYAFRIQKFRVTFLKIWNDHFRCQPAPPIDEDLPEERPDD
Procedure: as §1, §2, §3, §4, §5, §6, §7, §8, §9

[1] = read-out: % Inhibition of Control Specific Binding 1st
[2] = read-out: % Inhibition of Control Specific Binding Mean

## COCCN(C)C(=O)c1cc(C(=O)N(C)CCOC)cc(C(=O)N(C)CCOC)c1 [PTX-BD4-3, benzene-1,3,5-tricarboxylic acid tris-[(2-methoxy-ethyl)-methyl-amide]]
5-HT1A (h); [1]
  inhibition at 10 µM: 19.3%
5-HT1A (h); [2]
  inhibition at 10 µM: 5%
A1 (h); [1]
  inhibition at 10 µM: 8.9%
A1 (h); read-out: % Inhibition of Control Specific Binding 2nd
  inhibition at 10 µM: 5.6%
A1 (h); [2]
  inhibition at 10 µM: 7.2%
